Laboratory results from patent US20030108490A1, “Method and test kit for avoiding long-term failures in root canal treatments” (priority 2000, published 2003).
Several values for one entry are separate records, joined by “and”; a condition that tells them apart may be missing. Equal values may be shown once. Read-outs that look alike come from different tables or passages of the source.

How the values were obtained:
[1] = tested on: bacteria in the canals; settings: after 1-2 week medication, in most cases; cited from earlier work
[2] = obturated after one week of intracanal disinfection; cited from earlier work
[3] = tested on: MMP-8; settings: for MMP-8 detected in the root canals: pooled data
Description: 10 patients (11 teeth), with noncontributory medical histories, suffering from apical periodontitis, were selected for the collection of the root canal exudate samples. […] The sample collection was done with the approval of Ethical Committee of Helsinki University Faculty of Medicine, and with the patient's informed consent. The samples were collected during three consecutive appointments with two-week intervals, during which the root canal treatment was completed.
Primary access to the pulp and root canals was made according to regular treatment protocol. The instrumentation of the root canal was started with size 20 or 25 ISO file. X-ray was taken to determine the preparation length. At that time point, a sterile paper point was inserted into the root canal up to the preparation length for two minutes to absorb exudate from the root canal and periapical lesion. The root canals were then instrumented according to standard root canal treatment protocol. Finally, CaOH2 paste was inserted into the canal, and the access cavity was sealed.
After two weeks the root canals were reopened. After quick drying of the canals, a sterile paper point was inserted into the canal for two min for the sample collection. If the canal appeared dry, a drop of sterile saline was inserted to allow the absorption of the sample into the paper point. The root canal was then rinsed, dried and CaOH2 paste was inserted into the canal. After two weeks the procedure for the sample collection was repeated, and the root canals were filled with gutta percha and sealer in normal fashion.
Concentration of MMP-8 in the samples was determined from the elution buffer by a time-resolved immunofluorescence assay as described previously (Hanemaaijer et al., 1997). The monoclonal MMP-8 specific 8708 and 8706 antibodies were used as a catching antibody and tracer antibody, respectively. The tracer antibody was labeled using europium chelate. The assay buffer contained 20 mM Tris-HCl, pH 7.5, 0.5 M NaCl, 5 mM CaCl2, 50 μM ZnCl2, 0.5% bovine serum albumin, 0.5% sodium azide, and 20 mg/l DTPA. Samples were diluted in assay buffer and incubated for one h, followed by incubation for one h with tracer antibody. Enhancement solution was added, and after 5 min fluorescence was measured using a 1234 Delfia Research Fluorometer (Wallac, Turku, Finland).
Kruskall-Wallis 1-way ANOVA was used to analyze the degree of difference in the MMP-8 levels between the different appointments within each sample site.

[Ca+2].[OH-].[OH-] [Ca(OH)2, calcium hydroxide]
cultivable bacteria in the canals [1]: no cultivable bacteria
teeth that failed to show any healing in the periapical lesion area after one year [2]: 26% and 24%
levels of MMP-8 in the exudate ([3]; patients with initially high levels (over 1000 ng/ml), second appointment, after two weeks of treatment): undetectable levels
MMP-8 detected in the root canals ([3]; necrotic teeth, after mechanical preparation and first local medication (2nd visit)): a relatively high amount of MMP-8 was detected
MMP-8 detected in the root canals ([3]; after renewal of the local medication for fortnight (3rd visit)): no longer detected
levels of MMP-8 in the root canal samples ([3]; two other patients with initial value of 0, second appointment): 100 to 1000 ng/mL
